From patent US11999727B2 (Tango Therapeutics, Inc., priority 2020, dated 2024)

Experiments:
PRMT5 [1] = target: T1, PRMT5 (Homo sapiens, UniProt O14744); test: PRMT5 biochemical IC50 assay with SAM as cofactor; conditions: PRMT5, SAM as cofactor; read-out: SAM IC50
T1 construct: purchased Viva (custom protein)

PRMT5 [2] = target: T1, PRMT5; test: PRMT5 biochemical IC50 assay with no cofactor; conditions: PRMT5, no cofactor; read-out: No Cofactor/rel IC50
From the text: Table 1 indicates IC50 values (μM) against PRMT5 for exemplary compounds in the presence of SAM as cofactor, with no cofactor, and with MTA as cofactor, respectively (columns 4-6). […] Ki values can be calculated from the IC50 values as described in the Examples section. As detailed in the Examples section, for the assay performed in the presence of SAM, IC50=Ki×1.5 (Ki=IC50/1.5).

PRMT5 [3] = target: T1, PRMT5; test: PRMT5 biochemical IC50 assay with MTA as cofactor; conditions: PRMT5, MTA as cofactor; read-out: MTA IC50
[4] = test system: HAP1 MTAP-intact cell line; test: SDMA in-cell western assay, HAP1 MTAP-intact; assay type: cell-based; conditions: Homo sapiens, HAP1, SDMA in-cell western, HAP1 MTAP-intact; read-out: MTAP HAP1 intact IC50
Procedure, shortened: (§1)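 Compounds were tested in HAP1 cells differing only in MTAP status (endogenous expression versus null). Cellular SDMA levels were then measured by in-cell western, giving an IC50 in each background.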

[5] = test system: HAP1 MTAP-deleted cell line; test: SDMA in-cell western assay, HAP1 MTAP-deleted; assay type: cell-based; conditions: for IC50: Homo sapiens, HAP1, SDMA in-cell western, HAP1 MTAP-deleted; for MTAP intact/deleted ratio: SDMA in-cell western
Procedure, shortened: as §1

[6] = test system: HAP1 MTAP-deleted cell line; test: Viability assay, MTAP-deleted cell line; assay type: cell-based; conditions: Homo sapiens, HAP1, viability assay, read-out: HAP1 MTAP deleted viability
From the text: Table 1 additionally indicates IC50 values in a viability assay for the MTAP-deleted cell line (column 10), indicating the effect of treatment with compound on cell survival.

[7] = read-out: HAP1 MTAP deleted IC50
[8] = IC50 ratio HAP1 MTAP-intact / HAP1 MTAP-deleted
[9] = read-out: HAP 1 MTAP deleted IC50
[10] = IC50 ratio HAP1 MTAP-intact vs HAP1 MTAP-deleted

T1 sequence (O14744 whole entry): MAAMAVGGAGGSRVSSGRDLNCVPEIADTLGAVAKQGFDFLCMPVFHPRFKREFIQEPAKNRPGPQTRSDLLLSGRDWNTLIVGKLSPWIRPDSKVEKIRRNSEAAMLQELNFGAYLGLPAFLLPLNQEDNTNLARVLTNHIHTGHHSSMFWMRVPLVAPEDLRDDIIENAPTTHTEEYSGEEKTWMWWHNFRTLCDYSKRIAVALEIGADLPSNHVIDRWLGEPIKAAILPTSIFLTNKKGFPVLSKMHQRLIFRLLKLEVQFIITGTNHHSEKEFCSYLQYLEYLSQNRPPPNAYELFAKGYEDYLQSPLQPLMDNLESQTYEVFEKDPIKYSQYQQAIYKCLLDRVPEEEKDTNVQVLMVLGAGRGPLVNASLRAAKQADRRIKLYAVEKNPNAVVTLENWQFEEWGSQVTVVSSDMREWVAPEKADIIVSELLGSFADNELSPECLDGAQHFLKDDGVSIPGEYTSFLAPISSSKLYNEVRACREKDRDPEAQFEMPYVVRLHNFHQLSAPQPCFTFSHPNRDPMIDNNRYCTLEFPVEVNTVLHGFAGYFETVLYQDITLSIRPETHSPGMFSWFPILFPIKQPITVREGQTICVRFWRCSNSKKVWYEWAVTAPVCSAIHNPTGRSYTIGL
T1 sequence (Q9BQA1 whole entry partner): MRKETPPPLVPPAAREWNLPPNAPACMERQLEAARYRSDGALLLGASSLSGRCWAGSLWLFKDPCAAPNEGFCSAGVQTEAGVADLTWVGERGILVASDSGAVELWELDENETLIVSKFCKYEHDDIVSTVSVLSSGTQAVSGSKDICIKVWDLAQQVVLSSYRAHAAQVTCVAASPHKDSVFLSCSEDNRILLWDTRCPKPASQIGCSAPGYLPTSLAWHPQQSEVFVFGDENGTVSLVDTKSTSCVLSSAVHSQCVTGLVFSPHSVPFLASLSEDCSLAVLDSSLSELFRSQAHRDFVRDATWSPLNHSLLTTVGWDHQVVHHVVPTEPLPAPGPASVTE

SMILES	IC50 (PRMT5 [1])	IC50 (PRMT5 [2])	IC50 (PRMT5 [3])	IC50 [4]	IC50 [5, 7]	MTAP intact/deleted ratio [5, 8]	IC50 ([6]; HAP1 MTAP-deleted)	IC50 [5, 9]	IC50 ([6]; MTAP-deleted cell line)	MTAP intact/deleted ratio [5, 10]
NC(=O)c1cncc(NC(=O)C(=O)N2CC3(CCC2c2ccc(F)cc2)CC3)c1 (centres unmarked) [Compound 776, 5-(2-(6-(4-fluorophenyl)-5-azaspiro[2.5]octan-5-yl)-2-oxoacetamido)nicotinamide]	0.05 to 0.5 µM	0.05 to 0.5 µM	0.05 to 0.5 µM	> 1 µM	0.1 to 1 µM	A (an IC50 ratio greater than or equal to 10 fold)	1 to 10 µM	–	–	–
CCc1cc(NC(=O)C(=O)N2C[C@@H](C)CC[C@@H]2c2ccc(F)cc2)cnc1C [Compound 779, N-(5-ethyl-6-methyl-3-pyridyl)-2-[(2R,5S)-2-(4-fluorophenyl)-5-methyl-1-piperidyl]-2-oxo-acetamide]	0.05 to 0.5 µM	0.05 to 0.5 µM	< 0.05 µM	> 1 µM	0.1 to 1 µM	A (an IC50 ratio greater than or equal to 10 fold)	1 to 10 µM	–	–	–
COc1cc(NC(=O)C(=O)N2C[C@@H](C)CC[C@@H]2c2ccc(F)cc2)cnc1N [Compound 979, N-(6-amino-5-methoxy-3-pyridyl)-2-[(2R,5S)-2-(4-fluorophenyl)-5-methyl-1-piperidyl]-2-oxo-acetamide]	0.05 to 0.5 µM	0.05 to 0.5 µM	< 0.05 µM	> 1 µM	–	A (an IC50 ratio greater than or equal to 10 fold)	–	0.1 to 1 µM	1 to 10 µM	–
C[C@H]1CC[C@H](c2ccc(F)cc2)N(C(=O)C(=O)Nc2cnc(N)c(C3CC3)c2)C1 [Compound 989, N-(6-amino-5-cyclopropyl-3-pyridyl)-2-[(2R,5S)-2-(4-fluorophenyl)-5-methyl-1-piperidyl]-2-oxo-acetamide]	0.05 to 0.5 µM	0.05 to 0.5 µM	< 0.05 µM	> 1 µM	–	A (an IC50 ratio greater than or equal to 10 fold)	–	< 0.1 µM	< 1 µM	–
CC(C)c1cc(NC(=O)C(=O)N2C[C@@H](C)CC[C@@H]2c2ccc(F)cc2)cnc1N [Compound 993, N-(6-amino-5-isopropyl-3-pyridyl)-2-[(2R,5S)-2-(4-fluorophenyl)-5-methyl-1-piperidyl]-2-oxo-acetamide]	0.05 to 0.5 µM	< 0.05 µM	< 0.05 µM	> 1 µM	–	A (an IC50 ratio greater than or equal to 10 fold)	–	0.1 to 1 µM	1 to 10 µM	–
C[C@H]1CC[C@H](c2ccc(F)cc2)N(C(=O)C(=O)Nc2cnc(N)c(OC(F)F)c2)C1 [Compound 1026, N-[6-amino-5-(difluoromethoxy)-3-pyridyl]-2-[(2R,5S)-2-(4-fluorophenyl)-5-methyl-1-piperidyl]-2-oxo-acetamide]	0.05 to 0.5 µM	0.05 to 0.5 µM	< 0.05 µM	> 1 µM	–	A (an IC50 ratio greater than or equal to 10 fold)	–	0.1 to 1 µM	1 to 10 µM	–
C[C@H]1CC[C@H](c2ccc(F)cc2)N(C(=O)C(=O)Nc2cnc(OC(F)(F)F)c(C(N)=O)c2)C1 [Compound 1039, 5-[[2-[(2R,5S)-2-(4-fluorophenyl)-5-methyl-1-piperidyl]-2-oxo-acetyl]amino]-2-(trifluoromethoxy)pyridine-3-carboxamide]	0.05 to 0.5 µM	0.05 to 0.5 µM	0.05 to 0.5 µM	0.1 to 1 µM	–	C (an IC50 ratio of less than 3 fold)	–	0.1 to 1 µM	1 to 10 µM	–
CCc1cc(NC(=O)C(=O)N2C[C@@H](C)CC[C@@H]2c2cccc([C@@H]3CCCN(C)C3)c2)cnc1N [Compound 1090, N-(6-amino-5-ethyl-3-pyridyl)-2-oxo-2-[(2R,5S)-5-methyl-2-[3-[(3S)-1-methyl-3-piperidyl]phenyl]-1-piperidyl]acetamide]	< 0.05 µM	< 0.05 µM	< 0.05 µM	0.1 to 1 µM	< 0.1 µM	–	–	–	< 1 µM	A (an IC50 ratio greater than or equal to 10 fold)
CCc1cc(NC(=O)C(=O)N2C[C@@H](C)CC[C@@H]2c2ccc3sc(CN4CCOCC4)nc3c2)cnc1N [Compound 1092, N-(6-amino-5-ethylpyridin-3-yl)-2-((2R,5S)-5-methyl-2-(2-(morpholinomethyl)benzo[d]thiazol-5-yl)piperidin-1-yl)-2-oxoacetamide]	0.05 to 0.5 µM	< 0.05 µM	< 0.05 µM	0.1 to 1 µM	< 0.1 µM	–	–	–	< 1 µM	A (an IC50 ratio greater than or equal to 10 fold)
CC(=O)N1CCC(c2nc3cc([C@H]4CC[C@H](C)CN4C(=O)C(=O)Nc4cnc(N)c(C)c4)ccc3s2)CC1 [Compound 1093, 2-((2R,5S)-2-(2-(1-acetylpiperidin-4-yl)benzo[d]thiazol-5-yl)-5-methylpiperidin-1-yl)-N-(6-amino-5-methylpyridin-3-yl)-2-oxoacetamide]	< 0.05 µM	< 0.05 µM	< 0.05 µM	< 0.1 µM	< 0.1 µM	–	–	–	< 1 µM	A (an IC50 ratio greater than or equal to 10 fold)
CCc1cc(NC(=O)C(=O)N2C[C@@H](C)CC[C@@H]2c2ccc3sc(CCN4CCCC4)nc3c2)cnc1N [Compound 1095, N-(6-amino-5-ethylpyridin-3-yl)-2-((2R,5S)-5-methyl-2-(2-(2-(pyrrolidin-1-yl)ethyl)benzo[d]thiazol-5-yl)piperidin-1-yl)-2-oxoacetamide]	< 0.05 µM	< 0.05 µM	< 0.05 µM	< 0.1 µM	< 0.1 µM	–	–	–	< 1 µM	A (an IC50 ratio greater than or equal to 10 fold)
CCc1cc(NC(=O)C(=O)N2C[C@@H](C)CC[C@@H]2c2ccc3sc(C4CCN(C)CC4)nc3c2)cnc1C [Compound 1100, N-(5-ethyl-6-methylpyridin-3-yl)-2-((2R,5S)-5-methyl-2-(2-(1-methylpiperidin-4-yl)benzo[d]thiazol-5-yl)piperidin-1-yl)-2-oxoacetamide]	< 0.05 µM	< 0.05 µM	< 0.05 µM	0.1 to 1 µM	< 0.1 µM	–	–	–	< 1 µM	A (an IC50 ratio greater than or equal to 10 fold)
CCc1cc(NC(=O)C(=O)N2C[C@@H](C)CC[C@@H]2c2ccc3sc([C@H]4C[C@H](N(C)C)C4)nc3c2)cnc1N [Compound 1101, N-(6-amino-5-ethylpyridin-3-yl)-2-((2R,5S)-2-(2-(3-(dimethylamino)cyclobutyl)benzo[d]thiazol-5-yl)-5-methylpiperidin-1-yl)-2-oxoacetamide]	< 0.05 µM	< 0.05 µM	< 0.05 µM	< 0.1 µM	< 0.1 µM	–	–	–	< 1 µM	A (an IC50 ratio greater than or equal to 10 fold)
Cc1ncc(NC(=O)C(=O)N2C[C@@H](C)CC[C@@H]2c2ccc3sc(C4CCN(C)CC4)nc3c2)cc1Cl [Compound 1102, N-(5-chloro-6-methylpyridin-3-yl)-2-((2R,5S)-5-methyl-2-(2-(1-methylpiperidin-4-yl)benzo[d]thiazol-5-yl)piperidin-1-yl)-2-oxoacetamide]	< 0.05 µM	< 0.05 µM	< 0.05 µM	0.1 to 1 µM	< 0.1 µM	–	–	–	< 1 µM	A (an IC50 ratio greater than or equal to 10 fold)
